In this assay the test system is Septoria tritici. The assay is described as follows: curative testing against Septoria tritici on wheat plants in pots, visual score of disease severity. The format is in vivo. The conditions noted are these: Zymoseptoria tritici, adjuvant (if any) 0.1 %w/v, spray 200l/ha, read-out: % Efficacy; for Emax at 3 µg/mL: isopyrazam 3 mg per litre; for Emax at 10 µg/mL: isopyrazam 10 mg per litre; for Emax at 30 µg/mL: isopyrazam 30 mg per litre; for Emax at 100 µg/mL: isopyrazam 100 mg per litre. The protocol: The test data relate to curative testing against Septoria tritici on wheat. The wheat plants in pots are inoculated 3 to 5 days prior to spraying as indicated. The isopyrazam is formulated as an aqueous suspension concentrate formulation containing 250 g/l of isopyrazam. The suspension concentrate formulation is diluted to the concentrations of isopyrazam shown in the Tables with water prior to spraying. When adjuvant is included it is used at 0.1 %w/v in the spray dilution unless otherwise indicated. An inert non-adjuvant additive is included in all treatments to provide spray retention. The spray application is 200l/ha.
Three assessments are made per pot of wheat with […] fully randomised. The three replicate pots are visually assessed and given a score of disease severity. The percent efficacy corresponds to the reduction in average disease severity in the treated pots compared to the untreated pots as a percentage of the average disease severity of the untreated pots. Each Table represents a side-by-side experiment.

Setting [1] is: Table 2, treatment 4 days, assessment 18 days after inoculation.
Where [2] appears, read: Table 3, treatment 4 days, assessment 17 days after inoculation.
Setting [3] is: Table 4, treatment 4 days, assessment 18 days after inoculation.
The mark [4] stands for this setting: Table 5, treatment 3 days, assessment 19 days after inoculation.
[5] abbreviates: Table 6, treatment 4 days, assessment 17 days after inoculation.
The mark [6] stands for this setting: Table 7, treatment 4 days, assessment 18 days after inoculation.

SMILES strings stand for the structures. Where two headings read alike, the source gives them in different places.

For the molecule `CC(C)C1C2CCC1c1c(NC(=O)c3cn(C)nc3C(F)F)cccc12` (stereo not drawn) [isopyrazam, Isopyrazam], the Emax at 3 µg/mL under setting [1] was determined as 32%; the Emax at 3 µg/mL under setting [2] was 17.9%; the Emax at 3 µg/mL under setting [3] came out at 41%; the Emax at 3 µg/mL under setting [4] was found to be 8.8%; the Emax at 3 µg/mL under setting [5] stood at 9.1%; the Emax at 3 µg/mL under setting [6] was 5.1%. Further, the Emax at 10 µg/mL runs as follows: under setting [1], 36%; under setting [2], -0.53%; under setting [3], 39%; under setting [4], 9.4%; under setting [5], 6.8%; under setting [6], 15%. The Emax at 30 µg/mL was 47% under setting [1]; 10% under setting [2]; 29% under setting [3]; 14% under setting [4]; 19% under setting [5]; -18% under setting [6]. Also, the Emax at 100 µg/mL under setting [1] was 41%; the Emax at 100 µg/mL under setting [2] came out at 8.9%; the Emax at 100 µg/mL under setting [3] is 25%; the Emax at 100 µg/mL under setting [4] is 0.59%; the Emax at 100 µg/mL under setting [5] was found to be 14%; the Emax at 100 µg/mL under setting [6] was 32%.
